Data set [1] relates to Methicillin Resistant Staphylococcus Aureus (MRSA). Kind of data set: Anti-pathogenic microorganism test. The data set is classed as cell-based.
The test system of a further data set is Acinetobacter. Kind of data set: Anti-pathogenic microorganism test. The data set is classed as cell-based.
Another data set concerns Escherichia coli. Kind of data set: Anti-pathogenic microorganism test. It is filed as cell-based.
In the next data set the test system is Helicobacter pylori. The experiment in a line: Anti-pathogenic microorganism test. It is filed as cell-based.
A further data set deals with Candida albicans. Kind of data set: Anti-pathogenic microorganism test. The data set is classed as cell-based.
The conditions of data set [2]: room temperature; background description; cited from earlier work.
The conditions of data set [3]: background description; cited from earlier work.

The MIC is the least concentration at which growth counts as inhibited. A higher MIC goes with weaker potency.

Values after ≈ are worked out from the molar mass of the structure shown.

For `C=CCS[S+]([O-])CC=C` (stereo not shown) [Allicin, thio-2-propene-1-sulfinic acid S-allyl ester], the bactericidal activity result (in data set [1]; with Acinetobacter; in the data set with Escherichia coli; with Helicobacter pylori; in the data set with Candida albicans) was “obviously bactericidal activity” each time. The MIC (in data set [1] (Staphylococcus aureus); with Helicobacter pylori) was 10 to 30 µg/mL (≈ 61.6 to 185 µM) each time. Also, the sensitivity to allicin result in the data set with Candida albicans is “sensitive”. Moreover, the solubility in water entry in data set [2] is on record as “slightly soluble in water”. Besides, the “decomposition when exposed to air” value in data set [3] was “decomposes and deteriorates within a few hours”.

The values above are taken from US9023623B2, “Method for preparing of allicin injection and low-temperature continuous stirring ultrafiltration device thereof” (Xinjiang Ailexin Pharmaceutical Co., Ltd., priority 2010, dated 2015).
